Test results from US12157730B2, “Heteroaryl derivative, method for producing same, and pharmaceutical composition comprising same as effective component” (VORONOI INC., priority 2019, dated 2024).

target: T1, Ba/F3 cell EGFR Exon20 ins NPH (Homo sapiens, UniProt P00533, INS773NPH); experiment: Ba/F3 cell proliferation suppression, EGFR Exon20 ins NPH; format: cell-based; conditions: GI50 class; Ba/F3 cell line with NPH inserted at Exon20 of EGFR; 72 hours
T1 construct: expressed in transfected cells; host or cells: Ba/F3
Summary of the method: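 Seed 3000–5000 cells/well; after 24 h add compound (12 conc., 0.3 nM–50 um final); incubate 72 h; add CellTiter-Glo, 10 min room temperature; read luminescence; GI50 from % growth vs control, triplicate.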

`C=CC(=O)Nc1cc(Nc2cc(N3OCC[C@H]3c3c(F)cccc3F)ncn2)c(OC)cc1N1CCC(N2CCC(N(C)C)CC2)CC1` [compound 369, N-(5-((6-((S)-3-(2,6-difluorophenyl)isoxazolidine-2-yl)pyrimidine-4-yl)amino)-2-(4-(dimethylamino)-[1,4'-bipiperidine]-1'-yl)-4-methoxyphenyl) acrylamide] was tested. Which “Ba/F3 (NPH) Activity” value did it give?
Its value is “C (500 nM ≤ GI50 < 5000 nM)”.

`C=CC(=O)Nc1cc(Nc2cc(N3OCC[C@@H]3c3ccc(F)c(F)c3F)ncn2)c(OC)cc1N1CCC(N2C[C@@H]3C[C@H]2CO3)CC1` [compound 574, N-(2-(4-((1S,4S)-2-oxa-5-azabicyclo [2.2.1]heptane-5-yl)piperidine-1-yl)-4-methoxy-5-((6-((R)-3-(2,3,4-trifluorophenyl)isoxazolidine-2-yl)pyrimidine-4-yl)amino)phenyl)acrylamide] was tested. Which “Ba/F3 (NPH) Activity” value did it give?
The value was “A (GI50 < 50 nM)”.

How did the “Ba/F3 (NPH) Activity” value turn out when `C=CC(=O)Nc1cc(Nc2cc(N3OCC[C@@H]3c3ccc(F)c(F)c3)ncn2)c(OC)cc1N(C)CCN(C)C` [compound 457, N-(5-((6-((R)-3-(3,4-difluorophenyl)isoxazolidine-2-yl)pyrimidine-4-yl)amino)-2-((2-(dimethylamino)ethyl)(methyl)amino)-4-methoxyphenyl) acrylamide] was run?
Its value is “A (GI50 < 50 nM)”.

For `C=CCN1CCN(C2CCN(c3cc(OC)c(Nc4cc(N5OCC[C@@H]5Cc5cccc(Cl)c5Cl)ncn4)cc3NC(=O)C=C)CC2)CC1` [compound 1024, N-(2-(4-(4-allylpiperazine-1-yl)piperidine-1-yl)-5-((6-((S)-3-(2,3-dichlorobenzyl)isoxazolidine-2-yl)pyrimidine-4-yl)amino)-4-methoxyphenyl) acrylamide], which “Ba/F3 (NPH) Activity” value is on record?
The value was “A (GI50 < 50 nM)”.

With `C=CC(=O)Nc1cc(Nc2cc(N3OCC[C@@H]3c3ccc(F)c(F)c3)ncn2)c(OC)cc1N1CC[C@@H](N2CCOCC2)C1` [compound 578, N-(5-((6-((R)-3-(3,4-difluorophenyl)isoxazolidine-2-yl)pyrimidine-4-yl)amino)-4-methoxy-2-((R)-3-morpholinopyrolidine-1-yl)phenyl)acrylamide] as the molecule, how does the “Ba/F3 (NPH) Activity” value read?
The value was “B (50 nM ≤ GI50 < 500 nM)”.

`C=CC(=O)Nc1cc(Nc2cc(N3OCC[C@@H]3c3ccc(F)c(F)c3F)ncn2)c(OC)cc1N1CCC(N(C)C)CC1` [compound 573, N-(2-(4-(dimethylamino)piperidine-1-yl)-4-methoxy-5-((6-((R)-3-(2,3,4-trifluorophenyl)isoxazolidine-2-yl)pyrimidine-4-yl)amino)phenyl)acrylamide] was tested. Which “Ba/F3 (NPH) Activity” value did it give?
Its value is “A (GI50 < 50 nM)”.

For `C=CC(=O)Nc1cc(Nc2cc(N3OCC[C@@H]3c3cccc(Cl)c3)ncn2)c(OC)cc1N1C[C@@H]2C[C@H]1CO2` [compound 466, N-(2-((1S,4S)-2-oxa-5-azabicyclo[2.2.1]heptane-5-yl)-5-((6-((R)-3-(3-chlorophenyl)isoxazolidine-2-yl)pyrimidine-4-yl)amino)-4-methoxyphenyl) acrylamide], which “Ba/F3 (NPH) Activity” value is on record?
The value was “B (50 nM ≤ GI50 < 500 nM)”.

With `C=CC(=O)Nc1cc(Nc2cc(N3OCC[C@@H]3c3ccc(F)c(Cl)c3)ncn2)c(OC)cc1N1CCC(N2CCO[C@@H](C)C2)CC1` [compound 873, N-(5-((6-((R)-3-(3-chloro-4-fluorophenyl)isoxazolidine-2-yl)pyrimidine-4-yl)amino)-4-methoxy-2-(4-((S)-2-methylmorpholino)piperidine-1-yl)phenyl) acrylamide] as the molecule, how does the “Ba/F3 (NPH) Activity” value read?
Its value is “A (GI50 < 50 nM)”.

For `C=CC(=O)Nc1cc(Nc2cc(N3OCC[C@@H]3c3cccc(Cl)c3Cl)ncn2)c(OC)cc1N1C[C@H]2C[C@@H]1CN2CC` [compound 525, N-(5-((6-((R)-3-(2,3-dichlorophenyl)isoxazolidine-2-yl)pyrimidine-4-yl)amino)-2-((1R,4R)-5-ethyl-2,5-diazabicyclo[2.2.1]heptane-2-yl)-4-methoxyphenyl) acrylamide], which “Ba/F3 (NPH) Activity” value is on record?
Its value is “A (GI50 < 50 nM)”.

For `C=CC(=O)Nc1cc(Nc2cc(N3OCC[C@@H]3c3ccc(F)cc3)ncn2)c(OC)cc1N1CCC(N2CCOCC2)CC1` [compound 786, N-(5-((6-((R)-3-(4-fluorophenyl)isoxazolidine-2-yl)pyrimidine-4-yl)amino)-4-methoxy-2-(4-morpholinopiperidine-1-yl)phenyl)acrylamide], which “Ba/F3 (NPH) Activity” value is on record?
Its value is “A (GI50 < 50 nM)”.

Which “Ba/F3 (NPH) Activity” value does the source give for `C=CC(=O)Nc1cc(Nc2cc(N3OCC[C@@H]3c3cccc(Cl)c3)ncn2)c(OC)cc1N1CC[C@@H](N(C)C)C1` [compound 469, N-(5-((6-((R)-3-(3-chlorophenyl)isoxazolidine-2-yl)pyrimidine-4-yl)amino)-2-((R)-3-(dimethylamino)pyrolidine-1-yl)-4-methoxyphenyl) acrylamide] here?
Its value is “A (GI50 < 50 nM)”.

Which “Ba/F3 (NPH) Activity” value does the source give for `C=CC(=O)Nc1cc(Nc2cc(N3OCC[C@@H]3c3cccc(F)c3F)ncn2)c(OC)cc1N1CCC(N2CCN(C(C)=O)CC2)CC1` [compound 339, N-(2-(4-(4-acetylpiperazine-1-yl)piperidine-1-yl)-5-((6-((R)-3-(2,3-difluorophenyl)isoxazolidine-2-yl)pyrimidine-4-yl)amino)-4-methoxyphenyl) acrylamide] here?
Its value is “A (GI50 < 50 nM)”.

`C=CC(=O)Nc1cc(Nc2cc(N3OCC[C@@H]3c3c(F)ccc(F)c3F)ncn2)c(OC)cc1N(C)CCN(C)C` [compound 628, N-(2-((2-(dimethylamino)ethyl) (methyl)amino)-4-methoxy-5-((6-((R)-3-(2,3,6-trifluorophenyl)isoxazolidine-2-yl)pyrimidine-4-yl)amino)phenyl)acrylamide] was tested. Which “Ba/F3 (NPH) Activity” value did it give?
Its value is “A (GI50 < 50 nM)”.

How did the “Ba/F3 (NPH) Activity” value turn out when `C=CC(=O)Nc1cc(Nc2cc(N3OCC[C@@H]3c3cc(F)cc(F)c3)ncn2)c(OC)cc1N1CCC(N2CCCN(C3CC3)CC2)CC1` [compound 717, N-(2-(4-(4-cyclopropyl-1,4-diazepane-1-yl)piperidine-1-yl)-5-((6-((R)-3-(3,5-difluorophenyl)isoxazolidine-2-yl)pyrimidine-4-yl)amino)-4-methoxyphenyl) acrylamide] was run?
Its value is “A (GI50 < 50 nM)”.

For `C=CC(=O)Nc1cc(Nc2cc(N3OCC[C@@H]3c3ccc(C)nc3)ncn2)c(OC)cc1N1CCN(C2COC2)CC1` [Example 218, N-(4-methoxy-5-((6-((R)-3-(6-methylpyridine-3-yl)isoxazolidine-2-yl)pyrimidine-4-yl)amino)-2-(4-(oxetane-3-yl)piperazine-1-yl)phenyl)acrylamide], which “Ba/F3 (NPH) Activity” value is on record?
Its value is “B (50 nM ≤ GI50 < 500 nM)”.

`C#Cc1cccc([C@H]2CCON2c2cc(Nc3cc(NC(=O)C=C)c(N4CCC(N5CCOCC5)CC4)cc3OC)ncn2)c1` [compound 650, N-(5-((6-((R)-3-(3-ethynylphenyl)isoxazolidine-2-yl)pyrimidine-4-yl)amino)-4-methoxy-2-(4-morpholinopiperidine-1-yl)phenyl)acrylamide] was tested. Which “Ba/F3 (NPH) Activity” value did it give?
Its value is “A (GI50 < 50 nM)”.

How did the “Ba/F3 (NPH) Activity” value turn out when `C=CC(=O)Nc1cc(Nc2cc(N3OCC[C@@H]3c3ccc(F)cc3F)ncn2)c(OC)cc1N1CCC(N(C)CCOC)CC1` [compound 387, N-(5-((6-((R)-3-(2,4-difluorophenyl)isoxazolidine-2-yl)pyrimidine-4-yl)amino)-4-methoxy-2-(4-((2-methoxyethyl)(methyl)amino)piperidine-1-yl)phenyl)acrylamide] was run?
The value was “A (GI50 < 50 nM)”.

With `C#Cc1cccc([C@H]2CCON2c2cc(Nc3cc(NC(=O)C=C)c(N4CCC(N(C)C)CC4)cc3OC)ncn2)c1` [compound 647, N-(2-(4-(dimethylamino)piperidine-1-yl)-5-((6-((R)-3-(3-ethynylphenyl)isoxazolidine-2-yl)pyrimidine-4-yl)amino)-4-methoxyphenyl) acrylamide] as the molecule, how does the “Ba/F3 (NPH) Activity” value read?
Its value is “A (GI50 < 50 nM)”.

How did the “Ba/F3 (NPH) Activity” value turn out when `C=CC(=O)Nc1cc(Nc2cc(N3OCC[C@@H]3c3cccc(F)c3Cl)ncn2)c(OC)cc1N1CCC(N2C[C@H]3C[C@@H]2CO3)CC1` [compound 634, N-(2-(4-((1R,4R)-2-oxa-5-azabicyclo [2.2.1]heptane-5-yl)piperidine-1-yl)-5-((6-((R)-3-(2-chloro-3-fluorophenyl)isoxazolidine-2-yl)pyrimidine-4-yl)amino)-4-methoxyphenyl) acrylamide] was run?
The value was “A (GI50 < 50 nM)”.

How did the “Ba/F3 (NPH) Activity” value turn out when `C=CC(=O)Nc1cc(Nc2cc(N3OCC[C@@H]3c3ccccc3)ncn2)c(OC)cc1N1C2CC1CN(C)C2` [Example 35, N-(4-methoxy-2-(3-methyl-3,6-diazabicyclo[3.1.1]heptane-6-yl)-5-((6-((R)-3-phenylisoxazolidine-2-yl)pyrimidine-4-yl)amino)phenyl) acrylamide] was run?
The value was “B (50 nM ≤ GI50 < 500 nM)”.

`C=CC(=O)Nc1cc(Nc2cc(N3OCC[C@@H]3c3cccc(F)c3F)ncn2)c(OC)cc1N1C[C@H]2CCN(C)[C@H]2C1` [compound 875, N-(5-((6-((R)-3-(2,3-difluorophenyl)isoxazolidine-2-yl)pyrimidine-4-yl)amino)-4-methoxy-2-((3aR,6aR)-1-methylhexahydropyrrolo [3,4-b]pyrrole-5(1H)-yl)phenyl) acrylamide] was tested. Which “Ba/F3 (NPH) Activity” value did it give?
The value was “A (GI50 < 50 nM)”.

How did the “Ba/F3 (NPH) Activity” value turn out when `C=CC(=O)Nc1cc(Nc2cc(N3OCC[C@@H]3c3cccc(Cl)c3)ncn2)c(OC)cc1N1CCN(C2COC2)CC1` [compound 470, N-(5-((6-((R)-3-(3-chlorophenyl)isoxazolidine-2-yl)pyrimidine-4-yl)amino)-4-methoxy-2-(4-(oxetane-3-yl)piperazine-1-yl)phenyl) acrylamide] was run?
Its value is “A (GI50 < 50 nM)”.

For `C=CC(=O)Nc1cc(Nc2cc(N3OCC[C@@H]3Cc3cccc(F)c3Cl)ncn2)c(OC)cc1N1CCC(N2CCN(C3CC3)[C@@H](C)C2)CC1` [compound 1037, N-(5-((6-((S)-3-(2-chloro-3-fluorobenzyl)isoxazolidine-2-yl)pyrimidine-4-yl)amino)-2-(4-((S)-4-cyclopropyl-3-methylpiperazine-1-yl)piperidine-1-yl)-4-methoxyphenyl) acrylamide], which “Ba/F3 (NPH) Activity” value is on record?
The value was “A (GI50 < 50 nM)”.
